# Patent US20100168125A1, “INDOLIZINES AND AZA-ANALOG DERIVATIVES THEREOF AS CNS ACTIVE COMPOUNDS” (priority 2007, published 2010)
# How the values were obtained:
# human D2short receptor = biological target: T1, human D2short receptor (Homo sapiens, UniProt P14416); conditions: published derivatives with carboxamide alkylene spacer; read-out: Ki D2sh; cited from earlier work
# T1 construct: expressed in transfected cells; host or cells: Chinese hamster ovary (CHO) cells, membranes
# human D3 receptor [1] = biological target: T2, human D3 receptor (Homo sapiens, UniProt P35462); conditions: published derivatives with carboxamide alkylene spacer; cited from earlier work
# T2 construct: expressed in transfected cells; host or cells: Chinese hamster ovary (CHO) cells, membranes
# T2 sequence (P35462 whole entry): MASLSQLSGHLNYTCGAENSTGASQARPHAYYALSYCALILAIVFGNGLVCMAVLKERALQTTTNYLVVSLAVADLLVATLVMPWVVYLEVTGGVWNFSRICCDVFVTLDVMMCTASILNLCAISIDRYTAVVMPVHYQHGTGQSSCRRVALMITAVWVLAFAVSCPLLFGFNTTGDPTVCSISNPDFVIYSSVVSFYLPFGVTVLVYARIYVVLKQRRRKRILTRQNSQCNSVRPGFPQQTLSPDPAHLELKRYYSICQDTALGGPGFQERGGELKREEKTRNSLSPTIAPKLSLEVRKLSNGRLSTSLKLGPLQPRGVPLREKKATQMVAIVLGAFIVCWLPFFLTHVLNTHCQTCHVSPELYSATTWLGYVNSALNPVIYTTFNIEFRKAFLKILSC
# human D4.4 receptor = biological target: T3, human D4.4 receptor (Homo sapiens, UniProt P21917); conditions: published derivatives with carboxamide alkylene spacer; cited from earlier work
# T3 construct: expressed in transfected cells; host or cells: Chinese hamster ovary (CHO) cells, membranes
# T3 sequence (P21917 1-419): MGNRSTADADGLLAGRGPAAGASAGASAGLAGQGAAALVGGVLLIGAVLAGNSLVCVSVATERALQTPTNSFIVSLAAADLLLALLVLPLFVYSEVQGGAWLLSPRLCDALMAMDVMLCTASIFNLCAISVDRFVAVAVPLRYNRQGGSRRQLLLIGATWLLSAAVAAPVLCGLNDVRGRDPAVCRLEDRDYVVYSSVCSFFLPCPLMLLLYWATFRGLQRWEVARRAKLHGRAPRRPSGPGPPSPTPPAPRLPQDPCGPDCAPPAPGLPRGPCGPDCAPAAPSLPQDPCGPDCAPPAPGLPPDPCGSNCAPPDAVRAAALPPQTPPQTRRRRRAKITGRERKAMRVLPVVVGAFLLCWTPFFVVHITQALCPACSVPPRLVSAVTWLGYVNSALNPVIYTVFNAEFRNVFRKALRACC
# 5-HT2 receptor = biological target: T4, 5-HT2 receptor (Sus scrofa, UniProt P50129); conditions: published derivatives with carboxamide alkylene spacer; cited from earlier work
# T4 construct: membrane preparations from porcine cortical material; from tissue; host or cells: porcine cerebral cortex membranes
# T4 sequence (P50129 whole entry): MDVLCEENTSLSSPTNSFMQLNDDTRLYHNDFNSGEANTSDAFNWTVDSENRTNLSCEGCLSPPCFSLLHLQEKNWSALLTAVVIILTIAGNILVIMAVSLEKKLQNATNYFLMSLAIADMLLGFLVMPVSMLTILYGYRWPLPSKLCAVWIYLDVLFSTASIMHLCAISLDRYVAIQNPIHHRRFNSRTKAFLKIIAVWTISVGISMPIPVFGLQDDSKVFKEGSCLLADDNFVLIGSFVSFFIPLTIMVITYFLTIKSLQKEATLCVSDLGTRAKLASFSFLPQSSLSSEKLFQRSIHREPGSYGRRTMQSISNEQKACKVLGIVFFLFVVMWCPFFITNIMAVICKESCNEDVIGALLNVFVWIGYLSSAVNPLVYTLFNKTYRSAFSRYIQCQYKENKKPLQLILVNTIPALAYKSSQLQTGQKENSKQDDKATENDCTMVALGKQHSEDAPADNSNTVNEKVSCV
# human D3 receptor [2] = biological target: T2, human D3 receptor; experiment: radioligand binding with [^3H]spiperone, D3; conditions: ratio of Ki values
# Method in brief: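 Membranes from CHO cell lines expressing each human receptor subtype incubated with [^3H]spiperone. Test compounds spanned subnanomolar to micromolar concentrations in competition format.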
# 5-HT1A receptor = biological target: T5, 5-HT1A receptor (Sus scrofa, UniProt A0A4X1UTF5); conditions: published derivatives with carboxamide alkylene spacer; cited from earlier work
# T5 construct: membrane preparations from porcine cortical material; from tissue; host or cells: porcine cerebral cortex membranes
# T5 sequence (A0A4X1UTF5 1-422): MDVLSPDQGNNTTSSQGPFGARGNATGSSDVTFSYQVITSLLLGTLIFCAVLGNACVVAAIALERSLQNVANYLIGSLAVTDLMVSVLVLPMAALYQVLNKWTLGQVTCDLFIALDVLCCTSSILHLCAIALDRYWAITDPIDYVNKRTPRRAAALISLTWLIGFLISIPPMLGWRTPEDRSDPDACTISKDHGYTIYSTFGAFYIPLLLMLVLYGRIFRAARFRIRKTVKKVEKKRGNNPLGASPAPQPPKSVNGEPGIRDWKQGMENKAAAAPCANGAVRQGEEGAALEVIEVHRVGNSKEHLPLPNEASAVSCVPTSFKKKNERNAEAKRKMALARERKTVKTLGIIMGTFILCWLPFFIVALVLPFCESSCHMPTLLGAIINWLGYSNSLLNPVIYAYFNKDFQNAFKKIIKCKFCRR
# human D2long receptor = biological target: T6, human D2long receptor (Homo sapiens, UniProt P14416); conditions: published derivatives with carboxamide alkylene spacer; read-out: Ki D2lo; cited from earlier work
# T6 construct: expressed in transfected cells; host or cells: Chinese hamster ovary (CHO) cells, membranes
# T6 sequence (P14416 whole entry): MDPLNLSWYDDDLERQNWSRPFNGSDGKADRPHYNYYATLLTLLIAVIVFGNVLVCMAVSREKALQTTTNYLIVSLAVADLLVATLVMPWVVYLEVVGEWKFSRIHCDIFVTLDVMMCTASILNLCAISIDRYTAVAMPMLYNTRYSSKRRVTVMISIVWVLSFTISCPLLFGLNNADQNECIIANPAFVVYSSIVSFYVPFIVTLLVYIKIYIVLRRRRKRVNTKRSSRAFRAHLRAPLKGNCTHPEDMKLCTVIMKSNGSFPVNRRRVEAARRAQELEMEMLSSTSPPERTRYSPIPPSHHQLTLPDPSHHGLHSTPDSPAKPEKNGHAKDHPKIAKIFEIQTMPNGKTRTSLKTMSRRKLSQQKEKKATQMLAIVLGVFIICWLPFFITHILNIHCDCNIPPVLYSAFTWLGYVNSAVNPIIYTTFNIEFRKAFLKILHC
# T1 sequence (P14416 1-414 isoform P14416-2): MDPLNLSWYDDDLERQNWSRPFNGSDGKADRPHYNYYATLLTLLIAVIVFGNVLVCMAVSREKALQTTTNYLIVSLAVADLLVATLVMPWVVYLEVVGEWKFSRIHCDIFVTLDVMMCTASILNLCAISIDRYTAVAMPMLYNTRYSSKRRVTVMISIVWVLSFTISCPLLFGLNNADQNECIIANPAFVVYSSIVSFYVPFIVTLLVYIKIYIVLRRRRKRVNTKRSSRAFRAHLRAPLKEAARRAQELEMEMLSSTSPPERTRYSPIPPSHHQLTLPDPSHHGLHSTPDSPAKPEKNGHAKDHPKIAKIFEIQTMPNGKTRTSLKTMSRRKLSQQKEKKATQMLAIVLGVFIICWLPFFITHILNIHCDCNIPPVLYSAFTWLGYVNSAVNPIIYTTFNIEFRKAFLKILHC
Structure (SMILES),Ki (human D2short receptor) [nM],Ki (human D3 receptor [1]) [nM],Ki (human D4.4 receptor) [nM],Ki (5-HT2 receptor) [nM],ratio D2lo/D3 (human D3 receptor [2]),Ki (5-HT1A receptor) [nM],Ki (human D2long receptor) [nM]
O=C(NCCCCN1CCN(c2cccc(Cl)c2Cl)CC1)c1ccn2nccc2c1 [Example B26],51,0.25,210,44,340,28,86
COc1ccccc1N1CCN(CCCCNC(=O)c2ccn3ncc(Br)c3c2)CC1 [Example B28],89,12,59,240,15,6.4,180
COc1ccccc1N1CCN(CCCCNC(=O)c2ccn3ncc(Cl)c3c2)CC1 [Example B29],96,14,77,420,16,13,220
COc1ccccc1N1CCN(CCCCNC(=O)c2ccc3nccn3c2)CC1 [Example B93],30,7.8,140,950,11,12,82
